Data: patent publication US20040265877A1, “Methods for detecting presence of cellular constituents” (Marantech Holding, LLC, priority 2003, published 2004)

Columns and labels:
HeLa cells = assay: Binding/staining of HeLa cervical carcinoma cells; format: cell-based, human
Method: (§1) This example is directed to a reagent kit to determine the presence of cancer cells in cervical specimens (i.e., Pap (Papanicolaou test) smears).
Next, HeLa cells were mixed with epithelial (cheek) cells to create a simulated Pap smear.
(§2) TST solution (soluble TST) was prepared by adding 5 mg of TST to 1 ml of dd H2O. Inadvertent “grounding” of the TST was avoided. The solution was mixed gently and thoroughly by pipetting up and down. Formation of air bubbles and excessive agitation were avoided. The solution was centrifuged for 15 seconds at 1,000 rpm to settle excess TST. Soluble TST was added to a sample slide (picking up and depositing undissolved TST was avoided). The slide was incubated at room temperature for 10 minutes, followed by rinsing by either dipping the slide five times in a beaker of distilled water, or using the dual pipette method to remove excess TST. Dual pipette method: Using two pipettes, water was slowly added to the slide at one corner while the solution was simultaneously drawn up into the other pipette from a distal corner of the sample. Without intending to be bound by theory, the idea was to create somewhat of a flow across the sample, to gently wash it. The sample was quickly and gently blotted once or twice with a cloth wipe.
The enhancement solution was then prepared. One drop each of the 2-part enhancer was added to a microfuge tube. The mixture was vortexed for 40 seconds, and then immediately added it to the sample (an optional very brief centrifuge step at low speed in order to settle the liquid at the bottom of the tube was performed prior to addition to the sample). The sample was incubated at room temperature for 20-30 minutes. Optionally, the progress of the reaction under was observed using a light microscope. The slide was rinsed by either dipping the slide 5 times into a beaker of distilled water, or by the dual pipette method described above. The sample was quickly and gently blotted once or twice with a cloth wipe, and the sample was allowed to dry. The results were observed either under a light microscope or with the naked eye.

tumor cells (HeLa) = conditions: FIG. 7
Text: (§3) A non-spectrophotometric characterization technique, i.e., scanning electron microscopy (SEM) was used with the procedure set forth in Example VIII.

[1] = tested on: non-tumor cells (MCF-10A); conditions: FIGS. 10A-10B
Text: as §3

wild type mouse liver = conditions: after computer photography enhancement, 40x
Method: (§4) Frozen liver slices were obtained, and the two step process described below for non-aqueous testing was performed. The results were viewed with a microscope and computer enhanced. Frozen liver slices from a wild type mouse (non-cancerous) were compared with frozen liver slices from a transgenic mouse expressing tNOX on its liver cells.
(§5) TST solution was prepared by adding 5 mg of TST to 1 ml of dd H2O. Inadvertent “grounding” of the TST was avoided. The solution was mixed gently and thoroughly by pipetting up and down. Air bubbles and excessive agitation were avoided. The solution was centrifuged for 15 seconds at 1,000 rpm to settle excess TST.
(§6) Soluble TST was added to a sample section, while avoiding undissolved TST. The sample was incubated at room temperature for 10 minutes. Excess TST was removed by dipping the section several times in a beaker of distilled water. The sample was quickly and gently blotted once or twice with a cloth wipe.
(§7) The enhancement solution was prepared by placing one drop each of the two-part enhancer into a microfuge tube. The mixture was vortexed for 40 seconds, and immediately added to the sample. The solution was optionally centrifuged briefly at low speed in order to settle the liquid at the bottom of the tube prior to addition to the sample. The sample was incubated at room temperature for 20-30 minutes.

[2] = tested on: liver cells expressing tNOX; conditions: after computer photography enhancement, 40x
Method: as §4, §5, §6, §7

toenail fungus = conditions: single case, 25% suspension of the composition, topical; cited from earlier work
normal cells = tested on: normal cells
Method: as §1, §2
The enhancement solution was then prepared. One drop each of the 2-part enhancer was added to a microfuge tube. […]

[3] = tested on: Herpes virus infected cells; conditions: Pap smear samples, FIG. 4
Method: as §2
The enhancement solution was then prepared. One drop each of the 2-part enhancer was added to a microfuge tube. The mixture was vortexed for 40 seconds, and then immediately added it to the sample (an optional very brief centrifuge step at low speed in order to settle the liquid at the bottom of the tube was performed prior to addition to the sample). […]

[4] = single intravenous injection at about 40 ppm of human blood; no reported loss of liver function; cited from earlier work
athlete's foot = conditions: single case, solution of 100 ppm of the composition, topical; cited from earlier work
tNOX [5] = conditions: HeLa cells; concentration of one part per million (PPM)
Method: (§8) NADH oxidase (NOX) activity was determined (as the disappearance of it measured spectrophotometrically at 340 nm) in a reaction mixture (25 mM Tris-MES buffer at pH 7.2, KCN 1 mM) to inhibit low levels of mitochondrial oxidase activity, and 150 micromoles […] at 37° C. with stirring. Activity was measured with pairs of Hitachi U3210 Spectrophotometers. Assays were initiated by the addition of NOX and tetrasilver tetroxide (Ag4O4) for one minute and were repeated on the same sample every 1.5 minutes over a 45-minute period. A mM absorption coefficient of 6.2 was used to determine specific activity.
(§9) Protein disulfide-thiol interchange activity associated with tNOX was measured using the dipyridyldithio substrate dithiodipyridine (DTDP). The assay was performed in 50 mM Tris-MES buffer (pH 7.0) and was initiated by the addition of 0.5 micromoles DTDP in 5 microliters DMSO as a control. The reaction was monitored by tracking an increase in absorption at 340 nm using DTDP, specific activity being calculated using a mM absorption coefficient of 6.2. The spectrophotometric assays were performed simultaneously with the two spectrophotometers and DMSO controls.

tNOX [6] = molecular target: tNOX (Homo sapiens, UniProt Q16206); conditions: BT-20 mammary cancer cell line
Method: as §8, §9

[7] = tested on: gynecological yeast infection; conditions: 10 ppm silver tetroxide and 40 ppm sodium persulfate; cited from earlier work
CNOX [8] = conditions: soybean seed plasma protein; elevated concentrations far above 1 PPM
Method: as §8, §9
(§10) The procedure was repeated with plasma protein derived from soybean seeds containing CNOX growth regulator.

CNOX [9] = molecular target: CNOX (Homo sapiens, UniProt Q8TC92); conditions: MCF-10A human mammary epithelia; elevated concentrations far above 1 PPM
Method: as §8, §9, §10

Chain of CNOX (Homo sapiens, UniProt Q8TC92) (Q8TC92 whole entry): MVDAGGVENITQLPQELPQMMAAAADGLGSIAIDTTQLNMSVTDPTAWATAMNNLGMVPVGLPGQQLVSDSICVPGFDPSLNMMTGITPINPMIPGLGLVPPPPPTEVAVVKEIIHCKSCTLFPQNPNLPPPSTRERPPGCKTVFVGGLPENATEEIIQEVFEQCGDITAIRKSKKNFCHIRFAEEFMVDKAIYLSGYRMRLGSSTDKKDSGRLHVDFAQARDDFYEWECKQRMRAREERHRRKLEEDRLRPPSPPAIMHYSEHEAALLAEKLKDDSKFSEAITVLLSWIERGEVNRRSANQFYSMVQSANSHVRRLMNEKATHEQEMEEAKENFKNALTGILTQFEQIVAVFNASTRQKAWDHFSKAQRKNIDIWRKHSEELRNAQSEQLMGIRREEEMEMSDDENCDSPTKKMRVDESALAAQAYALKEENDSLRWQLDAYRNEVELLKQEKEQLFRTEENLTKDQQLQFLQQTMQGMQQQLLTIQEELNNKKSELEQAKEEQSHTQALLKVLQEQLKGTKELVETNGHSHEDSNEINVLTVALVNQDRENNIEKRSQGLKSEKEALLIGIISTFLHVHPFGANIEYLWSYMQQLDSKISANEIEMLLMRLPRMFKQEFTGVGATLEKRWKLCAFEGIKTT
Chain of tNOX (Homo sapiens, UniProt Q16206) (Q16206 whole entry): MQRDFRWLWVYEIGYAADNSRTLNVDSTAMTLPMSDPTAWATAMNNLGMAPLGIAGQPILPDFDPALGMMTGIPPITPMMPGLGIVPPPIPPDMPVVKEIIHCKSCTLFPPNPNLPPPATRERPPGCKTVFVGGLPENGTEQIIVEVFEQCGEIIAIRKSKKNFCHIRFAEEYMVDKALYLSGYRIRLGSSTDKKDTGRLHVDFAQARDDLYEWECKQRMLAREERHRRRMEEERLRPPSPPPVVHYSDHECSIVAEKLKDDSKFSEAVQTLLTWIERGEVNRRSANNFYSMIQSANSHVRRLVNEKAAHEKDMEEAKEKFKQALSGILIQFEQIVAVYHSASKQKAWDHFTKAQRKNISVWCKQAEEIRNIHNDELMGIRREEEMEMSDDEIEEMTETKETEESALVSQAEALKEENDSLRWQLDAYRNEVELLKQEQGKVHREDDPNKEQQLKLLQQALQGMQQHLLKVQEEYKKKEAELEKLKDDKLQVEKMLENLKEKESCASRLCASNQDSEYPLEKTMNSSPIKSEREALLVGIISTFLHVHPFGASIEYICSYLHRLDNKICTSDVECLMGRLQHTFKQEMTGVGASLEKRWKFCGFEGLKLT

[O]=[Fe].[O]=[Fe][O][Fe]=[O] [Fe3O4, triiron tetroxide]
staining of HeLa cells (HeLa cells; Fe3O4, FIGS. 9A-9C): selectively stained

[Ag+].[Ag+].[Ag+].[Ag+].[O-2].[O-2].[O-2].[O-2] [tetrasilver tetroxide]
binding by SEM (tumor cells (HeLa)): actual binding
binding by SEM [1]: non-binding
staining of liver slices (wild type mouse liver): did not
staining of liver slices [2]: black nuclei and black borders
outcome of infection (toenail fungus): cure
binding to normal cells (normal cells): without binding
nuclear staining (normal cells; Pap smear samples, FIG. 4): no nuclear staining
staining of infected cells [3]: brown staining
liver adverse effect [4]: hepatomegaly
outcome of infection (athlete's foot): cure
tNOX activity inhibition (tNOX [5]): inhibited completely
tNOX activity inhibition (tNOX [6]): the same as in Example VIfI
binding to HeLa cultured cervical cell lines (HeLa cells): bound covalently
nuclear staining (HeLa cells; Pap smear samples, FIG. 4): black staining of nuclei
distinguishing HeLa cells from epithelial (cheek) cells (HeLa cells; simulated Pap smear, HeLa mixed with cheek cells): selective binding with and darkening of the cytoplasmic membrane of the HeLa cells
outcome of infection [7]: curing
effect on CNOX (CNOX [8]): not affected at all
effect on CNOX (CNOX [9]): not affected at all
